Activity calls are given as the source filed them. The calls are words filed in the database; no cut-off is given here.
What was measured:
Bacillus subtilis [1] = assay: Antibacterial activity against Bacillus subtilis assessed as growth inhibition; assay type: functional
Staphylococcus aureus = assay: Antibacterial activity against Staphylococcus aureus assessed as growth inhibition; assay type: functional
Proteus mirabilis [2] = assay: Antibacterial activity against Proteus mirabilis assessed as growth inhibition; assay type: functional
Escherichia coli = assay: Antibacterial activity against Escherichia coli assessed as growth inhibition; assay type: functional, organism-based
Pseudomonas aeruginosa = assay: Antibacterial activity against Pseudomonas aeruginosa assessed as growth inhibition; assay type: functional, organism-based
Klebsiella pneumoniae [3] = assay: Antibacterial activity against Klebsiella pneumoniae assessed as growth inhibition; assay type: functional
[4] = Therapeutic index, ratio of LD50 for african green monkey Vero cells to EC50 for Avian influenza virus H5N1 infected in african green monkey Vero cells; assay type: cell-based; conditions: read-out: Ratio LD50/EC50
[5] = test system: unidentified influenza virus; assay: Antiviral activity against unidentified influenza virus (H5N1) infected African green monkey Vero cells assessed as protection against virus-induced cytopathic effect incubated for 3 days measured on day 4 post infection by MTT assay; assay type: functional, organism-based
Vero = assay: Cytotoxicity against Chlorocebus aethiops (African green monkey) Vero cells after 24 hr by MTT assay; assay type: cell-based; conditions: chlorocebus sabaeus
Bacillus subtilis [6] = assay: Antibacterial activity against Bacillus subtilis assessed as growth inhibition at 0.042 uM/ml; assay type: functional, organism-based
Proteus mirabilis [7] = assay: Antibacterial activity against Proteus mirabilis assessed as growth inhibition at 0.042 uM/ml; assay type: functional, organism-based
Klebsiella pneumoniae [8] = assay: Antibacterial activity against Klebsiella pneumoniae assessed as growth inhibition at 0.042 uM/ml; assay type: functional, organism-based

Molecule | growth inhibition (GI) (Bacillus subtilis [1]) | diameter of the inhibition zone (DIZ) (Staphylococcus aureus) [mm] | diameter of the inhibition zone (DIZ) (Proteus mirabilis [2]) [mm] | growth inhibition (GI) (Escherichia coli) | growth inhibition (GI) (Pseudomonas aeruginosa) | diameter of the inhibition zone (DIZ) (Klebsiella pneumoniae [3]) [mm] | selectivity ratio [4] | EC50 [5] [uM/ml] | LD50 (Vero) [uM/ml] | diameter of the inhibition zone (DIZ) (Bacillus subtilis [1]) [mm] | growth inhibition (GI) (Staphylococcus aureus) | growth inhibition (GI) (Proteus mirabilis [2]) | growth inhibition (GI) (Klebsiella pneumoniae [3]) | inhibition zone (IZ) (Bacillus subtilis [6]) [mm] | inhibition zone (IZ) (Proteus mirabilis [7]) [mm] | inhibition zone (IZ) (Klebsiella pneumoniae [8]) [mm]
NC(=O)NC(c1cn(-c2ccccc2)nc1-c1ccccc1)c1c(O)ccc2ccccc12 (stereo not given) | inactive | 24 | 0 | inactive | inactive | 11 | 6.84 | 0.025 | 0.171 | – | – | – | – | – | – | –
NC1=NC(c2c[nH]c3ccccc23)c2c(ccc3ccccc23)O1 (stereo not given) | – | – | – | inactive | inactive | 13 | 2.05 | 0.061 | 0.125 | 12 | inactive | inactive | – | – | – | –
CC(=O)NC(c1cn(-c2ccccc2)nc1-c1ccccc1)c1c(O)ccc2ccccc12 (stereo not given) | inactive | – | – | inactive | inactive | 18 | 7.19 | 0.021 | 0.151 | – | inactive | inactive | – | – | – | –
O=C(NC(c1cn(-c2ccccc2)nc1-c1ccccc1)c1c(O)ccc2ccccc12)c1ccccc1 (stereo not given) | – | – | – | inactive | inactive | 14 | 5.44 | 0.018 | 0.098 | 20 | inactive | inactive | – | – | – | –
O=C(NC(c1c(O)ccc2ccccc12)c1c[nH]c2ccccc12)c1ccccc1 (stereo not given) | – | 11 | – | inactive | inactive | – | 16.2 | 0.019 | 0.307 | 11 | – | inactive | inactive | – | – | –
c1ccc(C2=NC(c3c[nH]c4ccccc34)c3c(ccc4ccccc34)O2)cc1 (stereo not given) | – | 11 | – | inactive | inactive | 11 | 2.12 | 0.049 | 0.104 | 14 | – | inactive | – | – | – | –
CC(=O)NC(c1c(O)ccc2ccccc12)c1c[nH]c2ccccc12 (stereo not given) | – | 20 | – | inactive | inactive | – | 8.95 | 0.022 | 0.197 | 17 | – | inactive | inactive | – | – | –
c1ccc2c3c(ccc2c1)OC(c1c[nH]c2ccccc12)NC3c1c[nH]c2ccccc12 (stereo not given) | – | – | – | inactive | inactive | 12 | 0.726 | 0.168 | 0.122 | 13 | inactive | inactive | – | – | – | –
c1ccc(-c2nn(-c3ccccc3)cc2C2NC(c3cn(-c4ccccc4)nc3-c3ccccc3)c3c(ccc4ccccc34)O2)cc1 (stereo not given) | – | 11 | – | inactive | inactive | 11 | 1.98 | 0.045 | 0.089 | 11 | – | inactive | – | – | – | –
NC(=O)NC(c1c(O)ccc2ccccc12)c1c[nH]c2ccccc12 (stereo not given) | inactive | – | – | inactive | inactive | 11 | 7 | 0.031 | 0.217 | – | inactive | inactive | – | – | – | –
GENTAMICIN | – | – | – | – | – | – | – | – | – | – | – | – | – | 21 | 25 | 19
NC1=NC(c2cn(-c3ccccc3)nc2-c2ccccc2)c2c(ccc3ccccc23)O1 (stereo not given) | – | – | – | inactive | inactive | 11 | 5.61 | 0.0148 | 0.083 | 12 | inactive | inactive | – | – | – | –
CC(=O)N[C@H]1[C@H]([C@H](O)[C@H](O)CO)OC(C(=O)O)=C[C@@H]1NC(=N)N [ZANAMIVIR] | – | – | – | – | – | – | 15.5 | 0.015 | 0.232 | – | – | – | – | – | – | –

From ChEMBL document CHEMBL3046280, “Synthesis of 1-amidoalkyl-2-naphthols and oxazine derivatives with study of their antibacterial and antiviral activities” (Med Chem Res, 2013)
